The target of assay [1] is T1, BRD4 BD2 (Homo sapiens, UniProt O60885).
T1 construct: made in house
Description: AlphaScreen binding assay, BRD4 Bromodomain 2. How it is done:
(§1) The binding of Example compounds to BRD4 Bromodomain 1 and BRD4 Bromodomain 2 was assessed using 384-well AlphaScreen assay technology. His-epitope tagged BRD4 BD144-168 and BRD4 BD2333-460 were cloned, expressed, and purified to homogeneity. BRD4 BD1 and BRD4 BD2 binding and inhibition was assessed by monitoring the engagement of biotinylated Histone H4 (1-21) K5/8/12/16 tetra-acetylated peptide with the targets using the AlphaScreen technology (PerkinElmer). Specifically, in a 384-well black or white flat bottom plate, BRD4 BD1 (50 nM final) or BRD4 BD2 (100 nM final) was combined with peptide (50 nM final for BD1 or 100 nM final for BD2) in 50 mM HEPES (pH 7.3), 100 mM NaCl, 0.1% (w/v) BSA, and 0.01% (w/v) Triton X-100 either in the presence of DMSO (final 1.25% DMSO) or compound dilution series in DMSO. Alpha streptavidin donor beads and Nickel-chelate acceptor beads were added to a final concentration of 10 μg/ml each. After a minimum of 1 hour equilibration, plates were read on a BMG PHERAstar FS multi-label reader (BMG LabTech). The half maximal inhibitory concentration (IC50) values were calculated using IDBS Activity Base software with a four parameter logistic curve fit by the equation y=A+((B−A)/(1+((C/x)^D))), wherein A denotes the bottom plateau of the curve, B denotes the top plateau of the curve, C denotes the x value at the middle of the curve, D denotes the slope factor, x denotes the original known x values, and y denotes the original known y values. Data was fitted using the Levenburg Marquardt algorithm.
A general note: In Alpha technology, singlet oxygen from a donor bead excites a nearby acceptor bead.

Assay [2] addresses T2, BRD4 BD1 (Homo sapiens, UniProt O60885).
T2 construct: made in house
Kind of assay: AlphaScreen binding assay, BRD4 Bromodomain 1. As to the method:
as §1

Here are results for 20 molecules from patent US10703764B2, “Benzopiperazine compositions as BET bromodomain inhibitors” (FORMA Therapeutics, Inc., priority 2013, dated 2020).

A word on the IC50: it is the point on the concentration scale where inhibition reaches its midpoint. The low end stands for inhibition by little substance, the high end for a need for much substance. As for `CC(=O)N1c2ccc(-c3ccc(C(F)(F)F)nc3)cc2N(C(=O)c2ccco2)C[C@@H]1C` [Example I-837], the IC50 in assay [1] fell in the range of 50 to 500 nM; in assay [2], 1000 to 10000 nM.
With `CC(=O)N1c2ccc(-c3cnn(CC#N)c3)cc2N(C(=O)C2CC2)C[C@@H]1C` [Example I-675], the IC50 in assay [1] fell in the range of 50 to 500 nM; in assay [2], 1000 to 10000 nM.
`CC(C)OC(=O)N1C[C@H](C)N(C(=O)C2CC2)c2ccc(-c3cnn(CC(=O)N(C)C4CC4)c3)cc21` [Example I-610]: the values for the 50% inhibitory concentration (IC50) in assay [1] and in assay [2] were 50 to 500 nM and 1000 to 10000 nM, respectively.
Taken in the same sequence, the figures for `CC(=O)N1c2ccccc2N(C(=O)c2cnc3ccccc3c2)C[C@@H]1C` [Example I-752] were above 500 nM and above 10000 nM.
Regarding `COC(=O)N1c2ccc(-c3ccc(C(=O)NCCN)cc3)cc2N(C(=O)OC(C)C)C[C@@H]1C` [Example I-489], the half-inhibitory concentration (IC50) in assay [1] was above 500 nM; in assay [2], 1000 to 10000 nM.
As to `C[C@H]1CN(C(=O)C2CC2)c2cc(-c3ccc(C4(O)COC4)cc3)ccc2N1C(=O)C1CC1` [Example I-444], the results for the IC50 in assay [1] and in assay [2] were 50 to 500 nM and 100 to 1000 nM, respectively.
Consider `COc1cscc1C(=O)N1C[C@H](C)N(C(C)=O)c2ccccc21` [Example I-747], for which the 50% inhibitory concentration (IC50) is above 500 nM in assay [1] and above 10000 nM in assay [2].
In the case of `CC(=O)N1c2ccc(-c3ccc(S(C)(=O)=O)cc3)cc2N(C(=O)Nc2ccc(C)cc2)C[C@@H]1C` [Example I-974], the IC50 in assay [1] was 50 to 500 nM; in assay [2], 1000 to 10000 nM.
Take `COc1ncc(C)cc1OC(=O)N1C[C@H](C)N(C(C)=O)c2ccc(-c3cnn(C4CC4)c3)cc21` [Example I-1210]: the values for the IC50 in assay [1] and in assay [2] were 50 to 500 nM and 1000 to 10000 nM, respectively.
Regarding `C[C@H]1CN(C(=O)C2CC2)c2cc(-c3ccc(N4CCCS4(=O)=O)cc3)ccc2N1C(=O)C1CC1` [Example I-440], the concentration for half-maximal inhibition (IC50) in assay [1] was 50 to 500 nM; in assay [2], 100 to 1000 nM.
Take `COc1ccccc1C(=O)N1C[C@H](C)N(C(C)=O)c2ccccc21` [Example I-702]: the figures for the half-maximal inhibitory concentration (IC50) in assay [1] and in assay [2] were above 500 nM and above 10000 nM, respectively.
The matching figures for `CC(=O)N1c2ccc(-c3cnn(C(C)(C)C(N)=O)c3)cc2N(C(=O)C2CC2)C[C@@H]1C` [Example I-648]: 50 to 500 nM and 1000 to 10000 nM.
As to `CC(=O)N1c2ccccc2N(C(=O)c2cc3n(n2)CCC3)C[C@@H]1C` [Example I-774], the figures for the IC50 in assay [1] and in assay [2] were above 500 nM and above 10000 nM, respectively.
The matching figures for `CCNC(=O)N1C[C@H](C)N(C(C)=O)c2ccc(-c3ccc(S(C)(=O)=O)cc3)cc21` [Example I-965]: above 500 nM and above 10000 nM.
Consider `CC(=O)N1c2ccc(-c3cccc(-c4ccco4)c3)cc2N(C(=O)c2ccco2)C[C@@H]1C` [Example I-855], for which the concentration for half-maximal inhibition (IC50) in assay [1] is below 50 nM; in assay [2], 1000 to 10000 nM.
Consider `COC(=O)N1c2ccc(-c3cnn(C(C)(C)CO)c3)cc2N(C(=O)Oc2ccccn2)C[C@@H]1C` [Example I-1313], for which the half-inhibitory concentration (IC50) in assay [1] is 50 to 500 nM; in assay [2] it was 1000 to 10000 nM.
As to `CC(=O)N1c2ccc(-c3ccc(S(=O)(=O)CC(=O)N(C)C)cc3)cc2N(C(=O)c2ccco2)C[C@@H]1C` [Example I-433], the results for the IC50 in assay [1] and in assay [2] were 50 to 500 nM and 100 to 1000 nM, respectively.
With `CC(=O)N1c2ccc(-c3cnn(C4COC4)c3)cc2N(C(=O)C2CCOCC2)C[C@@H]1C` [Example I-110, (S)-1-(2-methyl-6-(1-(oxetan-3-yl)-1H-pyrazol-4-yl)-4-(tetrahydro-2H-pyran-4-carbonyl)-3,4-dihydroquinoxalin-1(2H)-yl)ethanone], the IC50 in assay [1] is above 500 nM; in assay [2] it was above 10000 nM.
The matching figures for `CC(=O)N1c2ccccc2N(S(=O)(=O)c2ccn(C)n2)C[C@@H]1C` [Example I-933]: above 500 nM and above 10000 nM.
As to `CC(=O)N1c2ccc(-c3cnn(CCS(C)(=O)=O)c3)cc2N(C(=O)Oc2ccc(F)cc2)C[C@@H]1C` [Example I-1017], the half-maximal inhibitory concentration (IC50) is above 500 nM in assay [1] and 1000 to 10000 nM in assay [2].
